For orientation: IC50 means the point on the concentration scale where inhibition reaches its midpoint.

Our source for the IC50 values is US20220144823A1, “PYRAZOLOPYRIDINE DERIVATIVES AS INHIBITORS OF PASK” (Galapagos NV, priority 2019, published 2022).

Assay [1] has as its target T1, autophosphorylation of PASK at position Thr307 in Hek293 cells overexpressing PASK (Homo sapiens, UniProt Q96RG2).
T1 construct: expressed in transfected cells; host or cells: Hek293
Nature of the assay: PASK autophosphorylation ELISA assay. In kind it is cell-based. The following applies: 24 h, ELISA readout. The method, then: The compounds of the invention are profiled in a cellular assay to determine their capacity to reduce the autophosphorylation levels of PASK at position Thr307 in Hek293 cells overexpressing PASK, using an ELISA-based readout.
At day 1, a 96-well cell assay plate is coated with poly-D-lysine (50 μL/well of a 0.05 mg/mL solution in PBS) and incubated for 1 h at 37° C. The plate is subsequently washed once with PBS and stored dry at RT until further use. Hek293 cells are transfected with a pcDNA3.1-PASK(FL,WT)-FLAG construct (SEQ ID1) and seeded in culture medium (DMEM+10% FBS) in a poly-D-lysine coated 96-well plate (0.3 μL JetPEI DNA transfection reagent (Polyplus-transfection SA, Cat #101-40), 10 ng construct and 90 ng pBluescript, 60000 cells per well). […] The cell plate is incubated overnight at 37° C., 5% CO2.
At day 2, the medium of the assay plate is removed and 100 μL of fresh medium (DMEM+10% FBS) is added to the plate. Cell plate is further incubated overnight at 37° C., 5% CO2. This to allow further expression of PASK protein.
At day 3, the medium is removed and replaced with 100 μL of serum free medium (DMEM). Test compound is added to the plate (8 points concentration curve with 1/3 dilution steps starting from 30 μM final concentration in 0.3% DMSO final). In the positive and negative control wells of the plate, 0.3% DMSO final is added. For each tested condition, duplicates are made for ELISA readout. Cell plate is incubated 24 h at 37° C., 5% CO2.
At day 4, the medium is removed and the plate is washed once with 100 μL/well PBS. Cells are lysed by adding 50 μL/well western blot lysis buffer (20 mM Tris pH 7.5, 150 mM NaCl and 1% Triton) to the plate. The assay plate is stored at −80° C. and thawed to perform the ELISA readout.
At day 1, the ELISA plate is coated with the mouse anti-FLAG antibody (2 μg/mL diluted in PBS, 100 μL/well) and incubated overnight at 4° C.
At day 2, the plate is washed once with 150 μL/well PBS. 200 μL/well blocking buffer (PBS with 3% BSA) is added and the plate is incubated for 4 h at RT. The plate is washed with 150 μL/well high salt washing buffer (20 mM Na2HPO4, 0.5% Triton X-100, 0.1% SDS, 0.1% BSA and 1 M NaCl) followed by one wash with 150 μL/well low salt washing buffer (20 mM Na2HPO4, 0.5% Triton X-100, 0.1% SDS, 0.1% BSA and 150 mM NaCl). Meanwhile, the cell lysate plate is thawed, two wells of the same condition are pooled (2×50 μL) and added to the ELISA plate. The ELISA plate is incubated overnight at 4° C.
At day 3, the ELISA plate is washed twice with 150 μL/well high salt washing buffer followed by two washes with low salt washing buffer. 100 μL/well detection antibody for pPASK (phospho-Akt substrate (RXXS*/T*) (110B7E) rabbit antibody (Cell Signaling Technology, Inc., Cat #9614) 2 μg/mL diluted in PBS with 3% BSA and 1×Halt™ protease and phosphatase inhibitor cocktail (Thermo Fisher Scientific, Inc., Cat #78447)) is added and incubated for 2 h at RT. The plate is washed twice with high and low salt wash buffer (150 μL/well) and 100 μL/well of an HRP antibody (swine anti-rabbit HRP antibody (Agilent Technologies, Inc., Cat #P039901) diluted 1/2000 in PBS with 3% BSA and 1×Halt™ protease and phosphatase inhibitor cocktail) is added to the plate, followed by an incubation for 1 h at RT in the dark (plate sealed with aluminum seal). The plate is washed twice with high and low salt wash buffer (150 μL/well) and 100 μL/well of SuperSignal™ ELISA Pico Chemiluminescent Substrate (Thermo Fisher Scientific, Inc., Cat #37070)(premix part 1 and part 2, 1/1) is added. The plate is incubated for 4 min at RT before measuring luminescence on the Luminoskan™ Ascent (Thermo Fisher Scientific, Inc.) (PMT default voltage; 100 ms integration time). […]
In general terms: In an ELISA, binding on a coated surface is turned into a signal by an enzyme label.

For assay [2], the target named is T2, human PASK (Homo sapiens, UniProt Q96RG2).
T2 construct: purchased ThermoFisher Scientific PR7013A
Nature of the assay: 33P radioactive kinase assay. The following applies: 33P radioactive PASK kinase assay, 10 μM ATP, ZIPtide 1 μM. In kind it is biochemical. The method, then:
The principle of the ^33P radioactive kinase assay consists in measuring the incorporated ^33P into the ZIPtide peptide substrate when phosphorylated by human PASK using [^33P]-[…]-ATP and ATP, which correlates with kinase activity.
The test compounds are prepared as a serial dilution of 10 point dose responses with 1/5 dilution steps in 100% DMSO starting from 0.2 or 2 mM highest concentration, diluted 1/20 in water and 5 μL is transferred to the assay plates (Greiner, Cat #651201).
1% DMSO and 10 μM staurosporine final concentrations are used respectively as negative and positive controls.
11 μL of enzyme-substrate mixture is added on the assay plates. The reactions are started by adding 9 μL ATP mixture, consisting of non-labeled and ^33P-labeled ATP, on the assay plates.
The reactions are stopped by adding 25 μL phosphoric acid (150 mM) to the reactions.
The completely terminated kinase reactions are transferred using a harvester on pre-wetted UniFilter-96 plates (UniFilter-96 GF/B, PerkinElmer Inc., Cat #6005177).
After harvesting the kinase reactions, the filter plates are washed 6 times with phosphoric acid (75 mM). The back of the UniFilter-96 plates are sealed and 40 μL MicroScint-20 (PerkinElmer Inc., Cat #6013621) is added to each well. The top of each plate is sealed with TopSeal-A (PerkinElmer Inc., Cat #6050185). Read-out is performed with a TopCount instrument (PerkinElmer Inc.).
Raw data are generated following the read-out performed on the TopCount, used to calculate percentage inhibition (PIN) values and plotted to generate dose response curves and derive the average half maximal inhibitory concentrations (IC50) reported in Table VI.

Assay [3] has as its target T2, human PASK. Nature of the assay: ADP-Glo kinase assay. In kind it is biochemical. The following applies: ADPGlo PASK kinase assay, 25 μM ATP, ZIPtide 25 μM. The essentials:
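Human recombinant PASK phosphorylating ZIPtide peptide with ATP, 120 min at RT; compounds in 10-point 1/5 dilution series, 1% DMSO final. ADP formed measured by ADP-Glo luminescence after ATP depletion; percent inhibition fitted to dose-response curves for averaged IC50.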
For orientation: ADP-Glo first removes unused ATP, then detects ADP through luciferase.

T1 sequence (Q96RG2 with tags, fused parts or gaps): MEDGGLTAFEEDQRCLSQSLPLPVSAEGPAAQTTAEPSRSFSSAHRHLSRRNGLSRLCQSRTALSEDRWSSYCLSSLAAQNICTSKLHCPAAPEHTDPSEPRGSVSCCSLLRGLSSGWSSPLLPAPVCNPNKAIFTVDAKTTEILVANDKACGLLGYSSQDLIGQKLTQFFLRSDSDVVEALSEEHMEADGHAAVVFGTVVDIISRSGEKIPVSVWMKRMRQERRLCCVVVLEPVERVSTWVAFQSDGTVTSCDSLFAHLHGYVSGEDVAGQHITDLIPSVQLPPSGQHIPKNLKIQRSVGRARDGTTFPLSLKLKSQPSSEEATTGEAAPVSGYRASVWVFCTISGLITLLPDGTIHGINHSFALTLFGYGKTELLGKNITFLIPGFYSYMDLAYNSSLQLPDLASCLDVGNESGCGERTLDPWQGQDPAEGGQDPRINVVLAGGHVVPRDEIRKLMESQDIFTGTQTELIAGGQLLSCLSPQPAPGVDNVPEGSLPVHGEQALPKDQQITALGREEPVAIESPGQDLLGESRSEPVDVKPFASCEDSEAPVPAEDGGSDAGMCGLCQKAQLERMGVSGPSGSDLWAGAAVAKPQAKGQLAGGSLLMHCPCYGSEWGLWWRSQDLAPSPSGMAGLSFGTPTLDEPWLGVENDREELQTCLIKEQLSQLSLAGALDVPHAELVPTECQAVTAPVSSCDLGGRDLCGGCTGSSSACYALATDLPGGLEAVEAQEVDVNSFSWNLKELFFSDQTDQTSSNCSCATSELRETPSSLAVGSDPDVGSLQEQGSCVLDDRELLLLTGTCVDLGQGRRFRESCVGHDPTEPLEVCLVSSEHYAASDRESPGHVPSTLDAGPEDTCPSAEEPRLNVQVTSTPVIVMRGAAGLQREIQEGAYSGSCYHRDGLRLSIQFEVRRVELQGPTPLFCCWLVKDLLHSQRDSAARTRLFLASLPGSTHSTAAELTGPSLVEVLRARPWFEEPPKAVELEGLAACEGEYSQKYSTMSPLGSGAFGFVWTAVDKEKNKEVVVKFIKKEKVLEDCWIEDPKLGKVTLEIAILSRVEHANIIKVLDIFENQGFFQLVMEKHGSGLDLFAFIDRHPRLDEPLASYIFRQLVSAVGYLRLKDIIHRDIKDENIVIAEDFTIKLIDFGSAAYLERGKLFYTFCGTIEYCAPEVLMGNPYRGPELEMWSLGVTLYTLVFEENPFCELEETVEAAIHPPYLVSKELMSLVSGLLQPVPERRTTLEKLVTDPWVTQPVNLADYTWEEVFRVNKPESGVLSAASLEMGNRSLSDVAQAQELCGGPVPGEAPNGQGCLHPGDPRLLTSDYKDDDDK
T2 sequence (Q96RG2 whole entry): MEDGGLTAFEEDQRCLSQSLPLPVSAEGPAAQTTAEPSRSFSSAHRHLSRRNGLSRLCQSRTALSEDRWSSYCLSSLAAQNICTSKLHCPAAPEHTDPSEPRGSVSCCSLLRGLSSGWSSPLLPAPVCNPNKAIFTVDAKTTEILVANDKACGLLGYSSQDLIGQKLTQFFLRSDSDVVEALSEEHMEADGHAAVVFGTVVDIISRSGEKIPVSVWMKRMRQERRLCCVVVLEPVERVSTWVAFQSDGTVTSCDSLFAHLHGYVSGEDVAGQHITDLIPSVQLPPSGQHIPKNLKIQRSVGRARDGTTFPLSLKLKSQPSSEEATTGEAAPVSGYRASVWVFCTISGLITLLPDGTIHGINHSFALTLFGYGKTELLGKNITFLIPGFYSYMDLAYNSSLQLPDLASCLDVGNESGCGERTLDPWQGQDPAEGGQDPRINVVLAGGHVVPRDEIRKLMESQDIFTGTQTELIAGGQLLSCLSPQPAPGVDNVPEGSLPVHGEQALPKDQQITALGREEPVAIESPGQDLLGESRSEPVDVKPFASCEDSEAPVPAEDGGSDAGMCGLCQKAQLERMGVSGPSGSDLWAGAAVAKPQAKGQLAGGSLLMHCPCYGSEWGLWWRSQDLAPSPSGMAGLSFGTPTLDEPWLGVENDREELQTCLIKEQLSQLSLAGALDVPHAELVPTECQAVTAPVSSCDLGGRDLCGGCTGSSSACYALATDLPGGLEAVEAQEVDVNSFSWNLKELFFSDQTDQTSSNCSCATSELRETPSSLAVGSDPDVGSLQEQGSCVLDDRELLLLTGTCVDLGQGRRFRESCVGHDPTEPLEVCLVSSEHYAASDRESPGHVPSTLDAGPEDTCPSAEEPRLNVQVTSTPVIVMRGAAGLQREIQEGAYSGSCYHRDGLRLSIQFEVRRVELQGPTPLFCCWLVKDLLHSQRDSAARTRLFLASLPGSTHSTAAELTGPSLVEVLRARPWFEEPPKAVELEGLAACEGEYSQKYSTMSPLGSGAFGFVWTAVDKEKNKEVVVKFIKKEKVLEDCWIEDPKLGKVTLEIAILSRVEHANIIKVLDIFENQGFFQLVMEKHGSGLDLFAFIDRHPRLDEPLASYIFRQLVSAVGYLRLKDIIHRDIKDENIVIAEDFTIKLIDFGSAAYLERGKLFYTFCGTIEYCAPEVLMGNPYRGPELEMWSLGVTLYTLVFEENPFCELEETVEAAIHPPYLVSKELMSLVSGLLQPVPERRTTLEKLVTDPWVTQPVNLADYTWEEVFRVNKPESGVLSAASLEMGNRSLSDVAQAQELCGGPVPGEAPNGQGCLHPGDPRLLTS

On to `Cc1nn(C)c(C)c1-c1cnn2ccc(-c3cc(C(N)=O)co3)cc12` [Cpd 43, 5-[3-(1,3,5-trimethylpyrazol-4-yl)pyrazolo[1,5-a]pyridin-5-yl]furan-3-carboxamide], for which the IC50 was in the range of 1000 to 5000 nM in assay [1], 0.01 to 10 nM in assay [2] and 0.01 to 10 nM in assay [3].

On to `Cc1nn(CC(F)(F)F)c(C)c1-c1cnn2ccc(-c3cc(C(=O)O)co3)cc12` [Cpd 40, 5-[3-[3,5-dimethyl-1-(2,2,2-trifluoroethyl)pyrazol-4-yl]pyrazolo[1,5-a]pyridin-5-yl]furan-3-carboxylic acid], for which the IC50 in assay [1] was 1000 to 5000 nM; in assay [2], 0.01 to 10 nM; in assay [3], 0.01 to 10 nM.

Take `Cc1nn(C)c(C)c1-c1cnn2ccc(-c3cc(C(=O)O)co3)cc12` [Cpd 2, 5-[3-(1,3,5-trimethylpyrazol-4-yl)pyrazolo[1,5-a]pyridin-5-yl]furan-3-carboxylic acid]: the IC50 in assay [1] fell in the range of 500 to 1000 nM; in assay [2], 0.01 to 10 nM; in assay [3], 0.01 to 10 nM.

As for `Cc1c(-c2cnn3ccc(-c4cc(C(=O)O)co4)cc23)c(C(F)(F)F)nn1C` [Cpd 23, 5-[3-[1,5-dimethyl-3-(trifluoromethyl)pyrazol-4-yl]pyrazolo[1,5-a]pyridin-5-yl]furan-3-carboxylic acid], the figures for the IC50 in assay [1] and in assay [2] were 0.1 to 500 nM and 0.01 to 10 nM, respectively.

As for `COc1nc(-c2ccn3ncc(-c4c(C)nn(C(C)C)c4C)c3c2)sc1C(=O)O` [Cpd 74, 2-[3-(1-isopropyl-3,5-dimethyl-pyrazol-4-yl)pyrazolo[1,5-a]pyridin-5-yl]-4-methoxy-thiazole-5-carboxylic acid], the values for the 50% inhibitory concentration (IC50) in assay [1] and in assay [3] were greater than 5000 nM and 0.01 to 10 nM, respectively.

Consider `COc1nn(-c2ccn3ncc(-c4c(C)nn(CC(F)(F)F)c4C)c3c2)cc1C(=O)O` [Cpd 68, 1-[3-[3,5-dimethyl-1-(2,2,2-trifluoroethyl)pyrazol-4-yl]pyrazolo[1,5-a]pyridin-5-yl]-3-methoxy-pyrazole-4-carboxylic acid], for which the IC50 in assay [1] was greater than 5000 nM; in assay [3] it was 0.01 to 10 nM.

For the compound `Cc1c(-c2cnn3ccc(-n4cc(C(=O)O)cn4)cc23)c(C(F)(F)F)nn1C` [Cpd 67, 1-[3-[1,5-dimethyl-3-(trifluoromethyl)pyrazol-4-yl]pyrazolo[1,5-a]pyridin-5-yl]pyrazole-4-carboxylic acid], the IC50 was 1000 to 5000 nM in assay [1] and 0.01 to 10 nM in assay [3].

For `CCOc1nc(-c2ccn3ncc(-c4c(C)nn(C(C)C)c4C)c3c2)sc1C(=O)O` [Cpd 65, 4-ethoxy-2-[3-(1-isopropyl-3,5-dimethyl-pyrazol-4-yl)pyrazolo[1,5-a]pyridin-5-yl]thiazole-5-carboxylic acid], the IC50 fell in the range of 0.1 to 500 nM in assay [1] and 0.01 to 10 nM in assay [3].

As to `CCOc1nc(-c2ccn3ncc(-c4c(C)nn(C(F)F)c4C)c3c2)sc1C(=O)O` [Cpd 72, 2-[3-[1-(difluoromethyl)-3,5-dimethyl-pyrazol-4-yl]pyrazolo[1,5-a]pyridin-5-yl]-4-ethoxy-thiazole-5-carboxylic acid], the IC50 was in the range of 1000 to 5000 nM in assay [1] and 0.01 to 10 nM in assay [3].

Consider `Cc1c(-c2cnn3ccc(-n4cc(C(=O)O)cn4)cc23)c(C(F)(F)F)nn1C(C)C` [Cpd 76, 1-[3-[1-isopropyl-5-methyl-3-(trifluoromethyl)pyrazol-4-yl]pyrazolo[1,5-a]pyridin-5-yl]pyrazole-4-carboxylic acid], for which the figures for the half-inhibitory concentration (IC50) in assay [1] and in assay [3] were 1000 to 5000 nM and 0.01 to 10 nM, respectively.

Take `CCOc1nc(-c2ccn3ncc(-c4c(C)nn(CC)c4C)c3c2)sc1C(=O)O` [Cpd 64, 4-ethoxy-2-[3-(1-ethyl-3,5-dimethyl-pyrazol-4-yl)pyrazolo[1,5-a]pyridin-5-yl]thiazole-5-carboxylic acid]: the results for the concentration for half-maximal inhibition (IC50) in assay [1] and in assay [3] were 0.1 to 500 nM and 0.01 to 10 nM, respectively.

For the compound `Cc1nn(C)c(C)c1-c1cnn2ccc(-c3nc(C4CC4)c(C(=O)O)s3)cc12` [Cpd 86, 4-cyclopropyl-2-[3-(1,3,5-trimethylpyrazol-4-yl)pyrazolo[1,5-a]pyridin-5-yl]thiazole-5-carboxylic acid], the IC50 lay within 0.1 to 500 nM in assay [1] and 0.01 to 10 nM in assay [3].

On to `Cc1nn(C(F)F)c(C)c1-c1cnn2ccc(-c3ncc(C(=O)O)s3)cc12` [Cpd 50, 2-[3-[1-(difluoromethyl)-3,5-dimethyl-pyrazol-4-yl]pyrazolo[1,5-a]pyridin-5-yl]thiazole-5-carboxylic acid], for which the IC50 was greater than 5000 nM in assay [1] and 0.01 to 10 nM in assay [3].

`CCn1nc(C)c(-c2cnn3ccc(-c4nc(OC)c(C(=O)O)s4)cc23)c1C` [Cpd 84, 2-[3-(1-ethyl-3,5-dimethyl-pyrazol-4-yl)pyrazolo[1,5-a]pyridin-5-yl]-4-methoxy-thiazole-5-carboxylic acid]: the IC50 fell in the range of 1000 to 5000 nM in assay [1] and 0.01 to 10 nM in assay [3].

`Cc1nn(CC(F)(F)F)c(C)c1-c1cnn2ccc(-n3cc(C(=O)O)cn3)cc12` [Cpd 62, 1-[3-[3,5-dimethyl-1-(2,2,2-trifluoroethyl)pyrazol-4-yl]pyrazolo[1,5-a]pyridin-5-yl]pyrazole-4-carboxylic acid]: the concentration for half-maximal inhibition (IC50) in assay [1] was greater than 5000 nM; in assay [3], 0.01 to 10 nM.

Take `CCOc1nc(-c2ccn3ncc(-c4c(C)nn(CC(F)(F)F)c4C)c3c2)sc1C(=O)O` [Cpd 70, 2-[3-[3,5-dimethyl-1-(2,2,2-trifluoroethyl)pyrazol-4-yl]pyrazolo[1,5-a]pyridin-5-yl]-4-ethoxy-thiazole-5-carboxylic acid]: the concentration for half-maximal inhibition (IC50) in assay [1] fell in the range of 0.1 to 500 nM; in assay [3] it was 0.01 to 10 nM.
